US12558348B2, “Bioactive phytochemicals” (Phytoquest Limited, priority 2019, dated 2026)
Marks after values point to notes of the source that are not given here.

Columns and labels:
CD44-HA binding = assay: CD44-HA (hyaluronic acid) binding activity in THP-1 cells by ELISA; type: cell-based, human; conditions: for CD44-HA: LPS-stimulated THP-1; for % reduction in CD44-HA levels: vs LPS control
Experimental: The THP-1 cells were cultured in RPMI media supplemented with mercaptoethanol & glutamine to get 80% confluence in the culture flask, then aspirated and centrifuged at 1500 rpm for 5 mins. The cell pellet was then resuspended in 1 ml of RPMI complete media and counted conventionally using a hemocytometer. The cells (5×106) were incubated with Phorbol 12-myristate 13-acetate (PMA) (10 ng/ml) in separate dishes to cause differentiation of the THP-1 cells. To determine the CD44-HA binding activity, THP-1 cells were pretreated for 1 hr with idoBR1 or cucumber extract-Q-actin (batch no. B17CF001) at the concentrations 100 μg/ml to 12.5 μg/ml and 200 μg/ml to 25 μg/ml respectively followed by 24 hr LPS (1 μg/ml) stimulation. Post incubation, the cell lysates were taken for further analysis.
Anti-CD44 monoclonal antibody (Invitrogen, 2 μg) was coated to each well in 96-well plates in 50 mM carbonate/bicarbonate buffer (pH 9.6) and incubated overnight at 4° C. The unbound antibodies were removed using PBS with 0.05% Tween 20 (PBS-T wash solution). The wells were blocked using 1% BSA and incubated for 1 hr at 37° C. The wells were washed thrice thoroughly using PBS-T wash solution by adding 200 μl into wells. 50 μl cell lysates were added to the wells and incubated for 1 hr at 37° C. The wells were then washed thrice by adding 200 μl of PBS-T by soaking the wells for 30 secs before each wash. Biotinylated-Hyaluronic acid (HA) antibody followed by Streptavidin-HRP was added to form an immune complex and incubated for 60 mins at 37° C. The solution was aspirated and the wells washed thrice with 200 μl wash solution by soaking the wells for 30 secs. 50 μl of both Chromogen A and Chromogen B was added to each well. The plate was incubated for 15 mins away from light at 37° C. The reaction was stopped by adding 50 μl Stop Solution and the absorbance was read at 450 nm.

[1] = tested on: murine microglial cell line BV-2; assay: Nitrite production by LPS-stimulated BV-2 microglial cells; type: cell-based; conditions: 24 hours
Experimental: (§1) idoBR1 was used in cell cultures of murine microglial cell line BV-2 at 0, 20, 40 and 80 μg/ml plus and minus sub-optimal LPS. Production of TNF-α and nitrite was measured after 24 hours.

[2] = Oral availability: idoBR1 in urine after eating cucumbers (GC-MS); type: in vivo, human; conditions: for excretion of idoBR1 in urine: volunteer, roughly 13 mg consumed in cucumbers
Experimental: Parisien pickling cucumbers (seeds purchased from Lidl 2013) were grown organically and three eaten at midday by each of one volunteer and one volunteer. […] The volunteers ate no Cucurbitaceae food for 15 hours prior to the experiment. Urine samples pre-consumption were collected over 3 hours as t=0 and then samples collected for 9 hours for the […] and 15 hours for the person. The 30 g cucumber sample was homogenised in 50% ethanol (aq) and after 15 hours extraction it was filtered and the idoBR1 fraction bound to cation exchange resin IR120 in the H+ form. After washing the column with water, the material displaced with 2M ammonia solution was dried (52.3 mg) and analysed by GC-MS after trimethylsilylation using Pierce TriSil. The remaining 51 mg of material then had 0.2 mg of castanospermine added for comparative quantification purposes. The entire urine samples were similarly treated using cation exchange resin except the material displaced by ammonia solution was run a second time through the same cation exchange resin (now in the ammonium form) to reduce strong bases (which will bind to IR120 in the ammonium form) and only the unretained material was kept. The urine idoBR1 fractions were dried and made up to 20 ml in water. 500 ul of each was sampled and 0.025 mg of castanospermine added.
This was carried out on a Perkin Elmer Turbomass Gold GCMS. The spectrum of the major peak at 10.33 mins matched the GCMS spectrum of authentic idoBR1, 900288 PhytoQuest Ltd, UK). The relative response factor was calculated between authentic BR1 (900125, PhytoQuest Ltd) and castanospermine is 1:2. Assuming the same response factor, the amount of idoBR1 was estimated as 1.5 mg in the 30 g sample which means that the volunteers consumed roughly 260/30×1 5 mg=13 mg of idoBR1.

IL-10 = IL-10 ELISA in LPS stimulated THP-1 cells; type: cell-based, human; conditions: for Fold increase in IL-10 levels: vs control = 1.00
Experimental: The cells in an 80% confluence culture flask were aspirated and centrifuged at 1500 rpm for 5 mins. The cell pellet was then resuspended in 1 ml of RPMI complete media and 1×10^5 cells/well seeded to each well of the 96 well microtiter plate. After 24 hrs incubation, PMA (10 ng/ml) was added to the 96 well plate to differentiate THP-1 cells to determine the TNF-α production, THP-1 cells were pretreated for 1 hr with idoBR1 or cucumber extract-Q-actin (batch no. […] Post incubation, the cell supernatant from each of the wells was aspirated into sterile micro centrifuge tubes and centrifuged at 1000 rpm for 2-3 mins. The cell supernatant was then used for evaluation of presence of cytokines using ELISA.
ELISA plates coated with antibodies for IL-12, IL-1β, or IL-10 (R&D Systems, USA) were used for the following study. To each well 50 μL of Assay Diluent RD1F was added after mixing well. 200 μL of sample (idoBR1 or extract), or control per well was added and covered with an adhesive strip. Following incubation for 2 hours at room temperature each well was aspirated and washed 4 times with Wash Buffer (400 μl). After the last wash, any remaining Wash Buffer was removed by aspirating or decanting. The plates were inverted and blotted against clean paper towels. To each well 200 μl of appropriate human conjugate was added and these then covered with a new adhesive strip and incubated for 1 hour at room temperature. The aspiration/wash was then repeated. 200 μL of Substrate Solution was then added to each well and further incubated for 20 minutes at room temperature protected from light. 50 μL of Stop Solution was added to each well. The colour in the wells was changed from blue to yellow. OD was measured within 30 minutes at 450 nm.

THP-1 cells = assay: Viability of THP-1 cells (trypan blue uptake or MTT dye conversion); type: cell-based, human
TNF-α = TNF-α production by LPS-stimulated BV-2 microglial cells; type: cell-based, murine; conditions: 24 hours
Experimental: as §1

Question: Which results are given for `O=C(O)[C@@H]1NC[C@H](O)[C@@H](O)[C@@H]1O` [idoBR1, (2R,3R,4R,5S)-3,4,5-trihydroxypiperidine-2-carboxylic acid]?
Answer: CD44-HA (CD44-HA binding; 12.5 μg/mL): 101.48 ng/mL; % reduction in CD44-HA levels (CD44-HA binding; 12.5 μg/mL): 8.12%; CD44-HA (CD44-HA binding; 25 μg/mL): 94.93 ng/mL; % reduction in CD44-HA levels (CD44-HA binding; 25 μg/mL): 14.05%; CD44-HA (CD44-HA binding; 50 μg/mL): 88.43 ng/mL; % reduction in CD44-HA levels (CD44-HA binding; 50 μg/mL): 19.93%; CD44-HA (CD44-HA binding; 100 μg/mL): 81.04 ng/mL; % reduction in CD44-HA levels (CD44-HA binding; 100 μg/mL): 26.62%; Nitrite production ([1]; 20 μg/ml + LPS): 11* μM; Nitrite production ([1]; 40 μg/ml + LPS): 9** μM; Nitrite production ([1]; 80 μg/ml + LPS): 8** μM; conjugation in the urine analysis ([2]; human urine): No obvious conjugation; oral availability ([2]; human, eaten cucumber): available orally; excretion of idoBR1 in urine ([2]; after 15 hours): approximately 2.4 mg; excretion of idoBR1 in urine ([2]; samples collected for 9 hours): approximately 2.1 mg; IL-10 (IL-10; 12.5 μg/mL): 19.02 pg/mL; Fold increase in IL-10 levels (IL-10; 12.5 μg/mL): 1.34 fold; IL-10 (IL-10; 25 μg/mL): 29.34 pg/mL; Fold increase in IL-10 levels (IL-10; 25 μg/mL): 2.07 fold; IL-10 (IL-10; 50 μg/mL): 37.22 pg/mL; Fold increase in IL-10 levels (IL-10; 50 μg/mL): 2.63 fold; IL-10 (IL-10; 100 μg/mL): 43.08 pg/mL; Fold increase in IL-10 levels (IL-10; 100 μg/mL): 3.04 fold; viability of THP-1 cells (THP-1 cells): did not significantly alter; TNF-α production (TNF-α; 20 μg/ml + LPS): 500** pg/ml; TNF-α production (TNF-α; 40 μg/ml + LPS): 470** pg/ml; TNF-α production (TNF-α; 80 μg/ml + LPS): 410*** pg/ml
